In article PMC12637021, “Talin–tensin3 interactions regulate fibrillar adhesion formation and tensin3 phase separation” (The Journal of Cell Biology, 2025):
Values joined by “and” are separate entries in the source; they are usually repeats but may differ in a detail not shown here. Equal values may be shown once. Where a SMILES comes first, the peptide text is derived from it.

How the values were obtained:
[1] = target: T1, talin R4 domain (residues 913–1,044) (Mus musculus, UniProt P26039); test: ITC, tensin3 TBS peptide binding to talin R4; details: ITC 25°C, pH 6.5; mean ± SD from triplicate measurements
T1 construct: R4 domain (residues 913–1,044); hexahistidine-tag followed by TEV protease cleavage site (N); made in house; host or cells: E. coli BL21
Description: (§1) Figure 3. Structural characterization of the multidomain talin–tensin3 interaction. (A) Representative images of NIH3T3 cells co-expressing GFP-R11DD-cBAK WT or carrying K2024E, K2031E, or both (K2024E+K2031E) with mCh-IDR. (B) Mitochondrial pulldown experiment using the same constructs as in A. (C) AlphaFold3 model of the talin R8–tensin3 TBS complex. TBS (orange) was predicted to engage the α2-α3 face of the R8 bundle (cyan). K1500 and R1510 (brown) are highlighted on the […]. (D) NIH3T3 cells co-expressing GFP-R7R8-cBAK WT or carrying K1500E or R1510E with mCh-IDR. (E) Mitochondrial pulldown experiment using constructs as in D. (F) Cells co-expressing mCh-TNS3-WT-cBAK and GFP-TLN1 constructs (R8m, K1500E; R11m, K2024E+K2031E). mCh-TNS3-L702E-cBAK was used as a negative control. (G and H) Overlay ^1H-^15N HSQC spectra of ^15N-labeled talin R3 (G) and talin R4 (H), at a concentration of 200 µM, in the absence (blue) and presence (red) of tensin3 TBS peptide at a molar ratio of 1:2. Magnified views in the right panels show the cross-peaks corresponding to the residues K869 and V871 of talin R3 (G) and the residues S927 and G969 of talin R4 (H), illustrating the progressive chemical shift changes at peptide molar ratios of 0 (blue), 0.25 (orange), 0.5 (green), 1.0 (coral), and 2.0 (red). The HSQC spectra of R3 and R4 were recorded at 700 and 800 MHz, respectively. (I and J) Mapping of the residue-specific CSD (related to Fig. S2, H and I) on the AlphaFold3 models of talin R3 (I) and R4 (J) colored in cyan, respectively, in complex with tensin3 TBS (orange). […]
(§2) Recombinant mouse talin1 R3 and R7R8 domains were expressed using the pET-151/D-TOPO vector. […] Final protein concentrations were determined by measuring absorbance at 280 nm using a NanoDrop spectrophotometer (Thermo Fisher Scientific), based on calculated extinction coefficients.
(§3) ITC experiments were performed using a MicroCal PEAQ-ITC automated instrument (Malvern Panalytical) at 25°C. […] Data were analyzed using the one-site binding model implemented in MicroCal PEAQ-ITC analysis software (Malvern Panalytical).

[2] = target: T2, talin R3 domain (residues 787–911) (Mus musculus, UniProt P26039); test: ITC, tensin3 TBS peptide binding to talin R3; details: ITC 25°C, pH 6.5; mean ± SD from triplicate measurements
T2 construct: recombinant talin R3 domain (residues 787–911); hexahistidine-tag followed by TEV protease cleavage site (N); made in house; host or cells: E. coli BL21
Description: as §1, §2, §3

[3] = target: T2, talin R3 domain (residues 787–911); test: 1H-15N HSQC NMR titration of talin R3; assay type: binding
Method: (§4) Recombinant mouse talin1 R3 and R7R8 domains were expressed using the pET-151/D-TOPO vector. The recombinant mouse talin R4 domain was expressed using the pET-28a(+)vectors. Both vectors include an N-terminal hexahistidine-tag followed by a tobacco etch virus protease cleavage site. Proteins were overexpressed in BL21 cells and purified via nickel-affinity chromatography with a single-step elution at 250 mM imidazole concentration. For NMR studies, uniformly ^15N-labeled proteins were produced by growing cells in 2xM9 minimal medium supplemented with 1 g/Liter ^15N-ammonium chloride (^15NH4Cl) as the sole nitrogen source. Following purification, proteins were concentrated and buffer-exchanged using PD-10 desalting columns (Cytiva). Final protein concentrations were determined by measuring absorbance at 280 nm using a NanoDrop spectrophotometer (Thermo Fisher Scientific), based on calculated extinction coefficients.
(§5) NMR spectra were acquired on Bruker Neo 700 MHz (for talin R3) or 800 MHz (for talin R4 and R7R8) spectrometers equipped with TCI cryoprobes. All experiments were performed at 298 K using 200 µM of uniformly ^15N-labeled talin R3, R4, or R7R8 in 20 mM sodium phosphate buffer (pH 6.4) containing 50 mM NaCl, 0.1 mM tris(2-carboxyethyl)phosphine (TCEP), and 5% (vol/vol) D2O. For titration experiments, synthetic tensin3 TBS peptide (aa 692–718) was added at final concentrations of 50, 100, 200, 400, and 800 µM. NMR data were processed using TopSpin (Bruker) and analyzed with Collaborative Computational Project for NMR software AnalysisAssign (version 3.2). HSQC spectra were measured using a standard Bruker pulse sequence. HSQC signals of the free proteins were assigned using the available backbone chemical shift data from the Biological Magnetic Resonance Data Bank (BMRB entries; R3: 17332; R4: 18313). The signals of the bound state were assigned by following the chemical shift changes with the increased concentrations of the peptide. Residue-specific chemical shift differences were calculated using HSQC spectra in the presence of 400 µM tensin3 TBS peptide.

talin R11 = details: previous observation; ref Atherton et al., 2022; read-out: Kd, talin R11 with tensin3 TBS; cited from earlier work
[4] = target: T3, talin R7R8 region (residues 1,359–1,659) (Mus musculus, UniProt P26039); test: ITC, tensin3 TBS peptide binding to talin R7R8; details: ITC 25°C, pH 6.5; mean ± SD from triplicate measurements
T3 construct: R7R8 region (residues 1,359–1,659); hexahistidine-tag followed by TEV protease cleavage site (N); made in house; host or cells: E. coli BL21
Description: as §1, §2, §3

[5] = target: T1, talin R4 domain (residues 913–1,044); test: 1H-15N HSQC NMR titration of talin R4; assay type: binding
Method: as §4, §5

[6] = target: T3, talin R7R8 region (residues 1,359–1,659); test: 1H-15N HSQC NMR titration of talin R7R8; assay type: binding; details: intermediate exchange
Method: as §4, with “Following purification, proteins were concentrated and buffer-exchanged using PD-10 desalting columns (Cytiva).” left out
NMR spectra were acquired on Bruker Neo 700 MHz (for talin R3) or 800 MHz (for talin R4 and R7R8) spectrometers equipped with TCI cryoprobes. […] NMR data were processed using TopSpin (Bruker) and analyzed with Collaborative Computational Project for NMR software AnalysisAssign (version 3.2). HSQC spectra were measured using a standard Bruker pulse sequence. […] Residue-specific chemical shift differences were calculated using HSQC spectra in the presence of 400 µM tensin3 TBS peptide.

[7] = 1:2 molar ratio (400 µM TBS peptide), threshold 5× SD

T3 sequence (P26039 1359-1659 limits assumed): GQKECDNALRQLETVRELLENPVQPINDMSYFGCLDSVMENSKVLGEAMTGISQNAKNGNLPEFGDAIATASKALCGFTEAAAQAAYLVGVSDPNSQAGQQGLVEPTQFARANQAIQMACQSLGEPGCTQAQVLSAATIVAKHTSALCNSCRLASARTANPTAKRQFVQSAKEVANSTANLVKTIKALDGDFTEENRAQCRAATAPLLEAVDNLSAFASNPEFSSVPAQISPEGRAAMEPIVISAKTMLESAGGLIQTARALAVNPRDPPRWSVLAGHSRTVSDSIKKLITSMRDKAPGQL
T2 sequence (P26039 787-911): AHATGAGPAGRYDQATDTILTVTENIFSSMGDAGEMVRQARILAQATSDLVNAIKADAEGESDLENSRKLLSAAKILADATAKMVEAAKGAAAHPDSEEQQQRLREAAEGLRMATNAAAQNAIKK
T1 sequence (P26039 913-1044 limits assumed): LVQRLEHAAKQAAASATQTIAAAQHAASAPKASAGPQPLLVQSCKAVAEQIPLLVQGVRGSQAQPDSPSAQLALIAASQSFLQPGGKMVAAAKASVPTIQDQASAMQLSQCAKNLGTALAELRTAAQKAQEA

Structure (SMILES): CC[C@H](C)[C@H](NC(=O)[C@H](CO)NC(=O)[C@H](CCC(N)=O)NC(=O)[C@H](CC(=O)O)NC(=O)[C@@H](NC(=O)[C@H](CC(=O)O)NC(=O)[C@H](CC(C)C)NC(=O)[C@@H](N)[C@@H](C)O)[C@@H](C)CC)C(=O)N[C@@H](CCC(=O)O)C(=O)N[C@@H](CCC(N)=O)C(=O)N[C@@H](CC(C)C)C(=O)N[C@@H](CC(N)=O)C(=O)N[C@@H](CCCNC(=N)N)C(=O)N[C@@H](CC(C)C)C(=O)N[C@H](C(=O)N[C@@H](CC(C)C)C(=O)N[C@@H](CCC(=O)O)C(=O)N[C@@H](CC(C)C)C(=O)N[C@@H](CC(=O)O)C(=O)N1CCC[C@H]1C(=O)N[C@H](C(=O)N[C@@H](Cc1ccccc1)C(=O)N[C@@H](CCC(=O)O)C(=O)N1CCC[C@H]1C(=O)N[C@H](C(=O)N1CCC[C@H]1C(=O)N[C@H](C(=O)O)[C@@H](C)O)[C@@H](C)CC)[C@@H](C)O)[C@@H](C)CC [tensin3 TBS] (H-TLDIDQSIEQLNRLILELDPTFEPIPT-OH; N-terminus and C-terminus assumed)
- Gibbs free energy (ΔG), R4-TBS [1]: -6.29 ± 0.086 kcal/mol
- enthalpy change (ΔH), R4-TBS [1]: 2.94 ± 0.586 kcal/mol and 2.94 ± 0.574 kcal/mol
- entropy contribution (−TΔS), R4-TBS [1]: -9.32 ± 0.626 kcal/mol
- Gibbs free energy (ΔG), R3-TBS [2]: -6.41 ± 0.0478 kcal/mol
- enthalpy change (ΔH), R3-TBS [2]: 1.68 ± 0.148 kcal/mol and 1.68 ± 0.14 kcal/mol
- entropy contribution (−TΔS), R3-TBS [2]: -8.08 ± 0.0956 kcal/mol
- HSQC spectral changes on addition of TBS, R3 ([3]; 200 µM 15N-talin R3, 298 K, 20 mM sodium phosphate pH 6.4, 50 mM NaCl, 0.1 mM TCEP, 5% D2O, 700 MHz, molar ratio up to 1:2): substantial changes
- location of significant chemical shift perturbations, R3 [3, 7]: α2 and α3 helices of R3
- Kd range suggested by exchange rate in NMR, R3 ([3]; intermediate exchange): micromolar (µM) range
- Kd (talin R11): 17 µM
- Gibbs free energy (ΔG), R7R8-TBS [4]: -6.549 ± 0.0406 kcal/mol
- enthalpy change (ΔH), R7R8-TBS [4]: 10.21 ± 0.492 kcal/mol
- entropy contribution (−TΔS), R7R8-TBS [4]: -16.75 ± 0.464 kcal/mol
- HSQC spectral changes on addition of TBS, R4 ([5]; 200 µM 15N-talin R4, 298 K, 20 mM sodium phosphate pH 6.4, 50 mM NaCl, 0.1 mM TCEP, 5% D2O, 800 MHz, molar ratio up to 1:2): substantial changes
- location of significant chemical shift perturbations, R4 [5, 7]: α1 and α2 helices of R4
- Kd range suggested by exchange rate in NMR, R4 ([5]; intermediate exchange): micromolar (µM) range
- Kd range suggested by exchange rate in NMR, R7R8 [6]: micromolar (µM) range
